Assay results taken from PubChem BioAssay (NCI).
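Each compound was tested at five concentrations against cells in 96-well plates for 48 hours. TGI: total growth inhibition.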

Tests used:
Assay in all cases: NCI-60 cell line screen, 48 h
[1] = system: 786-0 renal
[2] = system: A498 renal
[3] = system: A549 NSCLC
[4] = system: CAKI-1 renal
[5] = system: CCRF-CEM leukemia
[6] = system: COLO 205 colon
[7] = system: DLD-1 colon
[8] = system: DMS 114 small cell lung
[9] = system: DMS 273 small cell lung
[10] = system: EKVX NSCLC
[11] = system: HCC-2998 colon
[12] = system: HCT-116 colon
[13] = system: HL-60(TB) leukemia
[14] = system: HOP-62 NSCLC
[15] = system: HOP-92 NSCLC
[16] = system: HT29 colon
[17] = system: IGROV1 ovarian
[18] = system: K-562 leukemia
[19] = system: KM12 colon
[20] = system: LXFL 529 NSCLC
[21] = system: M14 melanoma
[22] = system: M19-MEL melanoma
[23] = system: MALME-3M melanoma
[24] = system: MOLT-4 leukemia
[25] = system: NCI-H226 lung
[26] = system: NCI-H23 lung
[27] = system: NCI-H522 lung
[28] = system: OVCAR-3 ovarian
[29] = system: OVCAR-4 ovarian
[30] = system: OVCAR-8 ovarian
[31] = system: RPMI-8226 leukemia
[32] = system: RXF-631 renal
[33] = system: SF-268 CNS
[34] = system: SF-295 CNS
[35] = system: SF-539 CNS
[36] = system: SK-MEL-2 melanoma
[37] = system: SK-MEL-28 melanoma
[38] = system: SK-MEL-5 melanoma
[39] = system: SK-OV-3 ovarian
[40] = system: SN12C renal
[41] = system: SNB-19 CNS
[42] = system: SNB-75 CNS
[43] = system: SNB-78 CNS
[44] = system: SR leukemia
[45] = system: SW-620 colon
[46] = system: TK-10 renal
[47] = system: UACC-257 melanoma
[48] = system: UACC-62 melanoma
[49] = system: UO-31 renal
[50] = system: XF 498 CNS
[51] = system: ACHN renal
[52] = system: HCT-15 colon
[53] = system: HOP-18 NSCLC
[54] = system: KM20L2 colon
[55] = system: NCI-H460 lung
[56] = system: RXF 393 renal
[57] = system: U251 CNS

CCCCCCCCCCCCCCCCCC(=O)NCC(COP(=O)(O)O)OCC (stereo unspecified)
TGI [1]: > 100 µM
TGI [2]: > 100 µM
TGI [3]: > 100 µM
TGI [4]: > 100 µM
TGI [5]: > 100 µM
TGI [6]: > 100 µM
TGI [7]: > 100 µM
TGI [8]: > 100 µM
TGI [9]: > 100 µM
TGI [10]: > 100 µM
TGI [11]: > 100 µM
TGI [12]: > 100 µM
TGI [13]: > 100 µM
TGI [14]: 54.5 µM
TGI [15]: 42.4 µM
TGI [16]: > 100 µM
TGI [17]: > 100 µM
TGI [18]: > 100 µM
TGI [19]: 58.3 µM
TGI [20]: > 100 µM
TGI [21]: > 100 µM
TGI [22]: > 100 µM
TGI [23]: > 100 µM
TGI [24]: > 100 µM
TGI [25]: 58.4 µM
TGI [26]: 30.1 µM
TGI [27]: > 100 µM
TGI [28]: > 100 µM
TGI [29]: > 100 µM
TGI [30]: > 100 µM
TGI [31]: > 100 µM
TGI [32]: 77.2 µM
TGI [33]: 61.2 µM
TGI [34]: 37.5 µM
TGI [35]: > 100 µM
TGI [36]: > 100 µM
TGI [37]: > 100 µM
TGI [38]: > 100 µM
TGI [39]: > 100 µM
TGI [40]: 46.4 µM
TGI [41]: 90.2 µM
TGI [42]: 82.5 µM
TGI [43]: 83.3 µM
TGI [44]: > 100 µM
TGI [45]: > 100 µM
TGI [46]: > 100 µM
TGI [47]: > 100 µM
TGI [48]: > 100 µM
TGI [49]: 83.2 µM
TGI [50]: > 100 µM

CC(=O)OC(=O)O/C=C\CCl
TGI [1]: > 100 µM
TGI [2]: > 100 µM
TGI [3]: > 100 µM
TGI [51]: > 100 µM
TGI [4]: > 100 µM
TGI [5]: > 100 µM
TGI [6]: > 100 µM
TGI [7]: > 100 µM
TGI [8]: > 100 µM
TGI [9]: > 100 µM
TGI [11]: > 100 µM
TGI [12]: > 100 µM
TGI [52]: > 100 µM
TGI [13]: > 100 µM
TGI [53]: > 100 µM
TGI [14]: > 100 µM
TGI [17]: > 100 µM
TGI [18]: > 100 µM
TGI [19]: > 100 µM
TGI [54]: > 100 µM
TGI [20]: > 100 µM
TGI [21]: > 100 µM
TGI [22]: > 100 µM
TGI [23]: > 100 µM
TGI [24]: > 100 µM
TGI [25]: > 100 µM
TGI [55]: > 100 µM
TGI [27]: 33.1 µM
TGI [28]: > 100 µM
TGI [29]: > 100 µM
TGI [30]: > 100 µM
TGI [31]: > 100 µM
TGI [56]: > 100 µM
TGI [32]: > 100 µM
TGI [33]: > 100 µM
TGI [35]: > 100 µM
TGI [36]: > 100 µM
TGI [37]: > 100 µM
TGI [38]: > 100 µM
TGI [39]: > 100 µM
TGI [40]: > 100 µM
TGI [41]: > 100 µM
TGI [42]: > 100 µM
TGI [43]: > 100 µM
TGI [44]: > 100 µM
TGI [45]: > 100 µM
TGI [46]: > 100 µM
TGI [57]: > 100 µM
TGI [47]: > 100 µM
TGI [48]: > 100 µM
TGI [49]: > 100 µM
